# Test system: 171881-019-R-J1-PDC tumor spheroid viability
# Test: Anticancer human tumor 171881-019-R-J1-PDC patient-derived invasive breast carcinoma cell line growth inhibition [PI3K]
# Settings: spheroids with HUVEC and MSC; for IC50: curve of first compound; for viability, T/C: stronger effect = lower value
# Text: Combinatorial screen of targeted agents with the PI3K inhibitors inavolisib, alpelisib, duvelisib, and copanlisib in multi-cell type tumor spheroids
# A high-throughput screen of multi-cell type tumor spheroids was designed to identify active combinations of targeted small molecules and PI3K pathway inhibitors. Complex spheroids include a stromal component modeled by human endothelial cells (HUVEC) and fibroblasts modeled by human mesenchymal stem cells (MSCs). The concentration ranges selected for each drug and investigational agent were based upon clinically achievable concentrations if the clinical Cmax of the agent was known.
# Compounds. The drugs and investigational agents: inavolisib (NSC800729), alpelisib (NSC765974), duvelisib (NSC772469), copanlisib (NSC816437), ipatasertib (NSC767898), afuresertib (NSC778305), talazoparib (NSC767125), sapanisertib (NSC764658), selumetinib (NSC741078), tovorafenib (DAY101, NSC766906), vemurafenib (NSC761431), ravoxertinib (NSC781343), sotorasib (NSC818433), MRTX1133 (NSC 836407), abemaciclib (NSC 768073), palbociclib (NSC758247), venetoclax (NSC 766270), SY5609 (NSC837396), enzalutamide (NSC755605), and darolutamide (NSC825331), were obtained from the National Cancer Institute (NCI) Developmental Therapeutics Program Chemical Repository. The FDA-approved anticancer drug set is available from the NCI Developmental Therapeutics Program. […] The stock solutions were prepared in dimethyl sulfoxide (DMSO, Sigma-Aldrich, St. Louis, MO, cat. D2650) at 800-fold the tested concentration and stored at -70 degrees C prior to their use. All drugs and investigational agents were tested over a range starting from a high concentration at or near the clinical Cmax and decreasing in half-log increments. If the clinical Cmax for an agent had not been determined, the highest concentration tested was 10 microM.
# Cell Culture. All cells were maintained in an incubator at 37 degrees C and 5% CO2 with 95% humidity. The PDC lines were cultured according to standard operating procedures established by the NCI PDMR (https://pdmr.cancer.gov/sops/default.htm). All PDCs were thawed and cultured in Matrigel-coated flasks prepared with a working solution of 1X Ham's F-12 nutrient mix, without supplementation (Invitrogen, Waltham, MA, cat. 11765054), 100 U/mL penicillin-streptomycin (Invitrogen, cat. 15140122), and 2.5% Matrigel (Corning Inc., Corning, NY, cat. 354248) for the first three passages. The 354836-022-R-J1-PDC, 475296-252-R-J1-PDC, and 997726-040-R-J2-PDC lines were cultured in 6A media, which includes advanced DMEM/F-12 (Thermo Fisher Scientific, cat. 12634028), 10 mM HEPES (Thermo Fisher Scientific, cat. 15630080), 1X GlutaMAX supplement (Thermo Fisher Scientific, cat. 35050061), 0.1 mg/mL primocin (InvivoGen, San Diego, CA, cat. ant-pm-2), 10% defined fetal bovine serum, heat inactivated (HyClone Laboratories Inc., Logan, UT, cat. SH30070.03HI), 50% L-WRN conditioned media (ATCC, cat. CRL-3276), 1.25 mM N-Acetyl-L-cysteine (Sigma-Aldrich, cat. A9165), 10 mM nicotinamide (Sigma-Aldrich, cat. N0636), 1X B-27 supplement (Thermo Fisher Scientific, cat. 17504044), 1X N-2 supplement (Thermo Fisher Scientific, cat. 17502048), and 10 microM Y-27632 dihydrochloride (Tocris Bioscience, Bristol, United Kingdom, cat. 1254). The 624824-186-R-J2-PDC line was cultured in 6C/Colon 1B media, which includes all 6A media components plus 50 ng/mL human EGF recombinant protein (Thermo Fisher Scientific, cat. PHG0311). […]
# [1] = second compound 0.00316 µM, first compound 0.0316 µM
# [2] = second compound 0.00316 µM, first compound 0.1 µM
# [3] = second compound 0.01 µM, first compound 0.0316 µM
# [4] = second compound 0.01 µM, first compound 0.1 µM
# [5] = second compound 0.0316 µM, first compound 0.0316 µM
# [6] = second compound 0.0316 µM, first compound 0.1 µM
# [7] = second compound 0.1 µM, first compound 0.0316 µM
# [8] = second compound 0.1 µM, first compound 0.1 µM
# [9] = second compound 0.316 µM, first compound 0.0316 µM
# [10] = second compound 0.316 µM, first compound 0.1 µM
# [11] = second compound 1 µM, first compound 0.0316 µM
# [12] = second compound 1 µM, first compound 0.1 µM
# 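Further: spheroids exposed to compound for 7 days before viability read.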
# 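Wherever viability, T/C is given: 100% = DMSO vehicle-treated spheroids.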
compound,measurement,setting,value
CC(C)n1nc(-c2ccc3oc(N)nc3c2)c2c(N)ncnc21 + CC(Nc1ccc2c(c1)OCCn1cc(N3C(=O)OCC3C(F)F)nc1-2)C(N)=O,IC50,second compound 0.00316 µM,0.00916 µM
same,IC50,second compound 0.01 µM,0.00401 µM
same,IC50,second compound 0.0316 µM,0.00136 µM
same,IC50,second compound 0.1 µM,< 0.000316 µM
same,IC50,second compound 0.316 µM,< 0.000316 µM
same,IC50,second compound 1 µM,< 0.000316 µM
same,"viability, T/C","second compound 0.00316 µM, first compound 0.000316 µM",80.2%
same,"viability, T/C","second compound 0.00316 µM, first compound 0.001 µM",76.2%
same,"viability, T/C","second compound 0.00316 µM, first compound 0.00316 µM",69.5%
same,"viability, T/C","second compound 0.00316 µM, first compound 0.01 µM",49.4%
same,"viability, T/C",[1],17.4%
same,"viability, T/C",[2],4.49%
same,"viability, T/C","second compound 0.01 µM, first compound 0.000316 µM",71.7%
same,"viability, T/C","second compound 0.01 µM, first compound 0.001 µM",69.9%
same,"viability, T/C","second compound 0.01 µM, first compound 0.00316 µM",49.7%
same,"viability, T/C","second compound 0.01 µM, first compound 0.01 µM",38.5%
same,"viability, T/C",[3],12.6%
same,"viability, T/C",[4],4.27%
same,"viability, T/C","second compound 0.0316 µM, first compound 0.000316 µM",58.5%
same,"viability, T/C","second compound 0.0316 µM, first compound 0.001 µM",50.9%
same,"viability, T/C","second compound 0.0316 µM, first compound 0.00316 µM",42.9%
same,"viability, T/C","second compound 0.0316 µM, first compound 0.01 µM",25.3%
same,"viability, T/C",[5],8.97%
same,"viability, T/C",[6],3.7%
same,"viability, T/C","second compound 0.1 µM, first compound 0.000316 µM",43.2%
same,"viability, T/C","second compound 0.1 µM, first compound 0.001 µM",38.6%
same,"viability, T/C","second compound 0.1 µM, first compound 0.00316 µM",28.8%
same,"viability, T/C","second compound 0.1 µM, first compound 0.01 µM",13.3%
same,"viability, T/C",[7],6.55%
same,"viability, T/C",[8],3.2%
same,"viability, T/C","second compound 0.316 µM, first compound 0.000316 µM",26.6%
same,"viability, T/C","second compound 0.316 µM, first compound 0.001 µM",25.2%
same,"viability, T/C","second compound 0.316 µM, first compound 0.00316 µM",17.7%
same,"viability, T/C","second compound 0.316 µM, first compound 0.01 µM",8.83%
same,"viability, T/C",[9],4.95%
same,"viability, T/C",[10],2.96%
same,"viability, T/C","second compound 1 µM, first compound 0.000316 µM",18.8%
same,"viability, T/C","second compound 1 µM, first compound 0.001 µM",19.5%
same,"viability, T/C","second compound 1 µM, first compound 0.00316 µM",12.8%
same,"viability, T/C","second compound 1 µM, first compound 0.01 µM",6.3%
same,"viability, T/C",[11],4.24%
same,"viability, T/C",[12],2.61%
CCCS(=O)(=O)Nc1ccc(F)c(C(=O)c2c[nH]c3ncc(-c4ccc(Cl)cc4)cc23)c1F + CC(Nc1ccc2c(c1)OCCn1cc(N3C(=O)OCC3C(F)F)nc1-2)C(N)=O,IC50,second compound 0.00316 µM,5.81 µM
same,IC50,second compound 0.01 µM,5.75 µM
same,IC50,second compound 0.0316 µM,4.85 µM
same,IC50,second compound 0.1 µM,3.48 µM
same,IC50,second compound 0.316 µM,< 0.0316 µM
same,IC50,second compound 1 µM,< 0.0316 µM
same,"viability, T/C",[1],92.3%
same,"viability, T/C",[2],109%
same,"viability, T/C","second compound 0.00316 µM, first compound 0.316 µM",92.9%
same,"viability, T/C","second compound 0.00316 µM, first compound 1 µM",109%
same,"viability, T/C","second compound 0.00316 µM, first compound 3.16 µM",94.6%
same,"viability, T/C","second compound 0.00316 µM, first compound 10 µM",10%
same,"viability, T/C",[3],78.4%
same,"viability, T/C",[4],87.2%
same,"viability, T/C","second compound 0.01 µM, first compound 0.316 µM",101%
same,"viability, T/C","second compound 0.01 µM, first compound 1 µM",102%
same,"viability, T/C","second compound 0.01 µM, first compound 3.16 µM",92.6%
same,"viability, T/C","second compound 0.01 µM, first compound 10 µM",11.1%
same,"viability, T/C",[5],63.3%
same,"viability, T/C",[6],64.9%
same,"viability, T/C","second compound 0.0316 µM, first compound 0.316 µM",81.9%
same,"viability, T/C","second compound 0.0316 µM, first compound 1 µM",83.3%
same,"viability, T/C","second compound 0.0316 µM, first compound 3.16 µM",83%
same,"viability, T/C","second compound 0.0316 µM, first compound 10 µM",7.38%
same,"viability, T/C",[7],46.7%
same,"viability, T/C",[8],51.4%
same,"viability, T/C","second compound 0.1 µM, first compound 0.316 µM",53.9%
same,"viability, T/C","second compound 0.1 µM, first compound 1 µM",57%
same,"viability, T/C","second compound 0.1 µM, first compound 3.16 µM",61.7%
same,"viability, T/C","second compound 0.1 µM, first compound 10 µM",5.11%
same,"viability, T/C",[9],32.5%
same,"viability, T/C",[10],32.4%
same,"viability, T/C","second compound 0.316 µM, first compound 0.316 µM",42%
same,"viability, T/C","second compound 0.316 µM, first compound 1 µM",44.7%
same,"viability, T/C","second compound 0.316 µM, first compound 3.16 µM",42.3%
same,"viability, T/C","second compound 0.316 µM, first compound 10 µM",5%
same,"viability, T/C",[11],21%
same,"viability, T/C",[12],28.4%
same,"viability, T/C","second compound 1 µM, first compound 0.316 µM",28.4%
same,"viability, T/C","second compound 1 µM, first compound 1 µM",33.5%
same,"viability, T/C","second compound 1 µM, first compound 3.16 µM",35.6%
same,"viability, T/C","second compound 1 µM, first compound 10 µM",3.55%

# — PubChem BioAssay AID1963986 (Molecular Pharmacology Branch, DTP, NCI, 2024)
